We go through 21 compounds from ChEMBL document CHEMBL5230136, “A review: Biologically active 3,4-heterocycle-fused coumarins” (Eur J Med Chem, 2021).

Values after ≈ are worked out from the molar mass of the structure shown.

For orientation: EC50 means the concentration that produces a half-maximal response. As a reminder, the MIC is the lowest concentration found to suppress growth. What is called IC50 is the midpoint of a concentration-inhibition curve.

Test [1] concerns Botrytis cinerea. The test can be described thus: Antifungal activity against Botrytis cinerea. Format: functional, organism-based.
Test [2] has as its system Escherichia coli. Briefly: Antibacterial activity against Escherichia coli assessed as bacterial growth inhibition by broth dilution method. In kind it is functional.
The test system of test [3] is Staphylococcus aureus. The test can be described thus: Antibacterial activity against Staphylococcus aureus ATCC 29213 assessed as reduction in bacterial growth. Format: functional.
For test [4], the system named is Escherichia coli. Briefly: Antibacterial activity against Escherichia coli assessed as bacterial growth inhibition. Format: functional.
Test [5] has as its system Rhizoctonia solani. Briefly: Antifungal activity against Rhizoctonia solani at 150 uM. In kind it is functional, organism-based.
Test [6] has as its target Dual specificity tyrosine-phosphorylation-regulated kinase 1A (Homo sapiens, UniProt Q13627). The test can be described thus: Inhibition of DYRK1A (unknown origin).
The next test has as its system MCF7. Briefly: Antiproliferative activity against human MCF7 cells assessed as inhibition of cell proliferation measured after 96 hrs by SRB assay. In kind it is functional, cell-based. The settings on record: MCF7, 96 h.
A further test concerns Candida albicans. The test can be described thus: […] activity against Candida albicans assessed as zone of inhibition at 20 mg/ml. In kind it is functional. Particulars: read-out: IZ.
In another test the test system is Bacillus cereus. Briefly: Antibacterial activity against Bacillus cereus assessed as zone of inhibition at 20 mg/ml. Format: functional. Particulars: read-out: IZ.
For test [7], the system named is Staphylococcus aureus. Briefly: Antibacterial activity against Staphylococcus aureus assessed as zone of inhibition. In kind it is functional.
The subject of a further test is Pseudomonas aeruginosa. Briefly: Antibacterial activity against Pseudomonas aeruginosa assessed as zone of inhibition. In kind it is functional.
In test [8] the test system is Escherichia coli. The test can be described thus: Antibacterial activity against Escherichia coli assessed as zone of inhibition. In kind it is functional.
For the next test, the system named is Klebsiella aerogenes. The test can be described thus: Antibacterial activity against Enterobacter aerogenes assessed as zone of inhibition. In kind it is functional.
In another test the test system is Aspergillus niger. The test can be described thus: Antifungal activity against Aspergillus niger assessed as zone of inhibition. Format: functional.
The test system of the next test is Penicillium italicum. The test can be described thus: Antifungal activity against Penicillium italicum assessed as zone of inhibition. In kind it is functional.
For a further test, the system named is Fusarium oxysporum. Briefly: Antifungal activity against Fusarium oxysporum assessed as zone of inhibition. In kind it is functional.
The subject of test [9] is Xanthomonas citri pv. malvacearum. The test can be described thus: Antibacterial activity against Xanthomonas citri pv. malvacearum assessed as reduction in bacterial growth. Format: functional. More on the design: concentration or dose not given beside the values.
Another test deals with Fusarium verticillioides. The test can be described thus: Antifungal activity against Fusarium verticillioides assessed as reduction in fungal growth. Format: functional. Further details: concentration or dose not given beside the values.
Test [10] concerns Rhizoctonia solani. Briefly: Antifungal activity against Rhizoctonia solani assessed as reduction in fungal growth. In kind it is functional. More on the design: concentration or dose not given beside the values.
The next test deals with Erysiphe necator. Briefly: Antifungal activity against powdery mildew Erysiphe necator assessed as reduction in fungal growth. In kind it is functional. More on the design: concentration or dose not given beside the values.
A further test relates to Phytophthora. The test can be described thus: Antimicrobial activity against Phytophthora assessed as reduction in microbial growth. In kind it is functional. More on the design: concentration or dose not given beside the values.
Test [11] deals with Botrytis cinerea. Briefly: Antifungal activity against gray mold Botrytis cinerea assessed as reduction in fungal growth. Format: functional. More on the design: concentration or dose not given beside the values.
A further test relates to RAW264.7. Briefly: Anti-inflammatory activity against mouse RAW264.7 cells assessed as inhibition of LPS-induced NO production at 50 ug/ml relative to control. In kind it is functional. Particulars: dose 50 µg/ml. Further details: scale not given: the % may be the effect or the level left.
The subject of the next test is Aspergillus ochraceus. The test can be described thus: Antifungal activity against Aspergillus ochraceus assessed as zone of inhibition. Format: functional.
The next test deals with Penicillium chrysogenum. The test can be described thus: Antifungal activity against Penicillium chrysogenum assessed as zone of inhibition. In kind it is functional.
For test [12], the system named is Staphylococcus epidermidis. The test can be described thus: Antibacterial activity against Staphylococcus epidermidis assessed as reduction in bacterial growth. In kind it is functional.
The test system of a further test is H69AR. The test can be described thus: Cytotoxicity against human NCI-H69AR cells assessed as reduction in cell viability by SRB assay. In kind it is functional, cell-based. In general terms: Sulforhodamine B stains cellular protein and so reports cell mass.
A further test concerns HuCC-A1. The test can be described thus: Antiproliferative activity against human HuCC-A1 cells assessed as reduction in cell proliferation. In kind it is functional, cell-based.
The target of test [13] is T1, D(4) dopamine receptor (Homo sapiens) (UniProt P21917).
T1 sequence (whole entry): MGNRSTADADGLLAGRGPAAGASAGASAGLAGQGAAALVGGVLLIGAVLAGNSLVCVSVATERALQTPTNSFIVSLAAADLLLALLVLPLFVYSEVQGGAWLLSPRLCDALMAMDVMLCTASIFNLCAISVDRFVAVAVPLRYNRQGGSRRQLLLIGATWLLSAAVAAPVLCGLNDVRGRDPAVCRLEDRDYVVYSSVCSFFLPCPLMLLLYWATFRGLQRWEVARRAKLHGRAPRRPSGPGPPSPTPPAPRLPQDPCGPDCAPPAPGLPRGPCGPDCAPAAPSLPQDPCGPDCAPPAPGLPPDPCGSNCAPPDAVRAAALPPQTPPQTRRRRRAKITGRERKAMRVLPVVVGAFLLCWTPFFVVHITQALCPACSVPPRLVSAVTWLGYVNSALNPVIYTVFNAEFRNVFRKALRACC
The test can be described thus: Inhibition of human D4 receptor.

A further test deals with HCT-116/VM46. Briefly: cells. The settings on record: Homo sapiens.
Test [14] is described as follows: Antiproliferative activity against human U87 cells assessed as reduction in cell viability by MTT assay. In kind it is functional, cell-based, U-87MG ATCC. Particulars: U-87 MG. For orientation: Tetrazolium assays rely on reduction of a dye to a coloured formazan, in cell work by metabolically active cells.
The next test deals with Colletotrichum camelliae. The test can be described thus: Antifungal activity against Colletotrichum camelliae. In kind it is functional, organism-based.

As to `C=CCOc1ccc2c(c1)oc(=O)c1c(C)c(C)oc12`, a half-maximal effect in the test with Botrytis cinerea [1] (EC50) was put at 1.72 µg/mL (≈ 6.36 µM).

On to `CC(=O)c1c(O)c2c(cc(O)c3c(=O)oc4c5cccc(C)c5oc(=O)c4c32)oc1=O`, for which the MIC was 100 µg/mL (≈ 238 µM) in the test with Escherichia coli [2], 150 µM (≈ 63 µg/mL) in the test on Staphylococcus aureus [3] and 100 µM (≈ 42 µg/mL) in the test on Escherichia coli [4].

As to `CCOc1ccc2c(c1)oc(=O)c1c(C)coc12`, the EC50 in the test with Rhizoctonia solani [5] turned out to be 8.87 µg/mL (≈ 36.3 µM).

Turning to `O=c1oc2ccc(O)cc2c2c1[nH]c1ccc(O)cc12`, in test [6], the half-inhibitory concentration (IC50) amounted to 0.067 µM.

In turn, `COc1ccc2c(c1)oc(=O)c1c(C)coc12` displayed an EC50 in the test with Rhizoctonia solani [5] of 3.57 µg/mL (≈ 15.5 µM).

Turning to `O=c1oc2ccccc2c2[se]c(CN3CCOCC3)c(Nc3ccncc3)c12`, the IC50 in the test on MCF7 stood at 18 µM.

On to `Nc1cc(=O)[nH]c2c3c(=O)oc4ccccc4c3nn12`, for which the zone of inhibition at 20000 µg/mL in the test on Candida albicans was 10 mm.

In the case of `NC1NC=NC2=C1C(c1ccc(Br)cc1)c1c(c3ccccc3oc1=O)O2` (centres undefined), in the test on Bacillus cereus, the zone of inhibition at 20000 µg/mL was 22 mm. Besides, the “inhibition zone (IZ)” value with Staphylococcus aureus [7] is on record as 29 mm; with Pseudomonas aeruginosa, 18 mm; in the test on Escherichia coli [8] it was 21 mm; in the test with Klebsiella aerogenes, 20 mm; in the test with Aspergillus niger, 14 mm; with Penicillium italicum, 16 mm. In the test on Fusarium oxysporum, the “inhibition zone (IZ)” value is 18 mm.

`CC(=O)N1C(c2ccccc2)Cc2c(c(=O)oc3c2ccc2ccccc23)C1c1ccccc1` (centres undefined): the Activity is on record as 9% in test [9]; 6% in the test with Fusarium verticillioides; 2% with Rhizoctonia solani [10]; 0% with Erysiphe necator; 0% with Phytophthora; 21% with Botrytis cinerea [11].

With `O=C(O)Cc1ccccc1Nc1c(Cl)cccc1Cl` [DICLOFENAC], in the test on RAW264.7, the Activity turned out to be 62%.

With NYSTATIN, the inhibition zone (IZ) was 20 mm in the test on Penicillium italicum, 26 mm in the test with Fusarium oxysporum, 24 mm in the test with Aspergillus ochraceus and 24 mm in the test with Penicillium chrysogenum.

For the compound `Cc1ccc2c3c(c(=O)oc2c1)C(c1ccccc1)NC(c1ccccc1)C3` (centres undefined), the Activity in test [9] stood at 0%; with Fusarium verticillioides it was 20%; in the test on Rhizoctonia solani [10] it was 13%; in the test on Erysiphe necator it was 38%; with Phytophthora, 83%; in the test on Botrytis cinerea [11] it was 0%.

As for `COc1cccc2c1OC(=O)C1C(C)=Nc3[nH]n(-c4cc(Cl)ccc4Cl)c(=O)c3C21` (centres undefined), the MIC in [12] amounted to 25 µM (≈ 11.1 µg/mL).

`COc1cc(-c2c3n(c4c(=O)oc5cc(O)c(OC)cc5c24)CCc2c-3cc(OC)c(OC)c2O)ccc1O`: the IC50 in the test on H69AR is 4.3 µM; with HuCC-A1 it was 3.4 µM.

Compound `COc1cc2c(cc1OC)C1CCN(CCN3CC4CCC(CC4)C3)CC1C(=O)O2` (centres undefined) came in with an ID50 in [13] of 0.113 mg/kg.

Take `O=c1oc2ccc3ccccc3c2cc1-c1ccc2c(=O)oc3ccc(Cl)cc3c2n1`: the MIC in the test on Staphylococcus aureus [3] stood at 62.5 µM (≈ 26.6 µg/mL).

Take `CC[C@]1(O)C[C@@H]2CN(CCc3c([nH]c4ccccc34)[C@@](C(=O)OC)(c3cc4c(cc3OC)N(C)[C@H]3[C@@](O)(C(=O)OC)[C@H](OC(C)=O)[C@]5(CC)C=CCN6CC[C@]43[C@@H]65)C2)C1` [VINBLASTINE]: half-maximal inhibition in the test on HCT-116/VM46 (IC50) required 0.002 µM.

As to `N#CC1=C(N)Oc2c(c(=O)oc3ccc(Br)cc23)C12C(=O)Nc1ccccc12` (centres undefined), the IC50 in test [14] is 78 µM.

`Cc1coc2c1c(=O)oc1ccccc12` showed an EC50 in the test on Colletotrichum camelliae of 8.74 µg/mL (≈ 43.7 µM).

Take `Cc1cccc2c1oc(=O)c1cc(NC(=O)c3ccccc3)c(=O)oc12`: in the test on Escherichia coli [4], the MIC came to 105 µM (≈ 36.5 µg/mL).

As for `COc1ccc2c(c1)OC(=O)C1CN(CCN3CC4CCC(CC4)C3)CCC21` (centres undefined), the ID50 in test [13] is 0.035 mg/kg.
